Columns and labels:
Assay type in all cases: functional
Klebsiella pneumoniae [1] = assay: Antimicrobial activity against multidrug resistant Klebsiella pneumoniae isolate 1 by broth dilution method in presence of 26.3 mg/L efflux pump inhibitor phenylalanine-arginine-beta-naphthylamide
Klebsiella aerogenes [2] = assay: Antimicrobial activity against multidrug resistant Enterobacter aerogenes isolate 26 by broth dilution method
Klebsiella pneumoniae [3] = assay: Antimicrobial activity against multidrug resistant Klebsiella pneumoniae isolate 9 by broth dilution method
Klebsiella aerogenes [4] = assay: Antimicrobial activity against multidrug resistant Enterobacter aerogenes isolate 19 by broth dilution method in presence of 26.3 mg/L efflux pump inhibitor phenylalanine-arginine-beta-naphthylamide
Klebsiella aerogenes [5] = assay: Antimicrobial activity against multidrug resistant Enterobacter aerogenes isolate 7 by broth dilution method
Klebsiella aerogenes [6] = assay: Antimicrobial activity against multidrug resistant Enterobacter aerogenes isolate 11 by broth dilution method
Klebsiella aerogenes [7] = assay: Antimicrobial activity against multidrug resistant Enterobacter aerogenes isolate 11 by broth dilution method in presence of 26.3 mg/L efflux pump inhibitor phenylalanine-arginine-beta-naphthylamide
Klebsiella aerogenes [8] = assay: Antimicrobial activity against multidrug resistant Enterobacter aerogenes isolate 26 by broth dilution method in presence of 26.3 mg/L efflux pump inhibitor phenylalanine-arginine-beta-naphthylamide
Klebsiella aerogenes [9] = assay: Antimicrobial activity against multidrug resistant Enterobacter aerogenes isolate 2 by broth dilution method in presence of 26.3 mg/L efflux pump inhibitor phenylalanine-arginine-beta-naphthylamide
Klebsiella aerogenes [10] = assay: Antimicrobial activity against multidrug resistant Enterobacter aerogenes isolate 14 by broth dilution method
Klebsiella aerogenes [11] = assay: Antimicrobial activity against multidrug resistant Enterobacter aerogenes isolate 22 by broth dilution method in presence of 26.3 mg/L efflux pump inhibitor phenylalanine-arginine-beta-naphthylamide
Klebsiella aerogenes [12] = assay: Antimicrobial activity against multidrug resistant Enterobacter aerogenes isolate 4 by broth dilution method
Klebsiella pneumoniae [13] = assay: Antimicrobial activity against multidrug resistant Klebsiella pneumoniae isolate 12 by broth dilution method
Klebsiella pneumoniae [14] = assay: Antimicrobial activity against multidrug resistant Klebsiella pneumoniae isolate 16 by broth dilution method
Klebsiella aerogenes [15] = assay: Antimicrobial activity against multidrug resistant Enterobacter aerogenes isolate 17 by broth dilution method
Klebsiella aerogenes [16] = assay: Antimicrobial activity against multidrug resistant Enterobacter aerogenes isolate 13 by broth dilution method in presence of 26.3 mg/L efflux pump inhibitor phenylalanine-arginine-beta-naphthylamide
Klebsiella aerogenes [17] = assay: Antimicrobial activity against multidrug resistant Enterobacter aerogenes isolate 27 by broth dilution method
Klebsiella aerogenes [18] = assay: Antimicrobial activity against multidrug resistant Enterobacter aerogenes isolate 23 by broth dilution method in presence of 26.3 mg/L efflux pump inhibitor phenylalanine-arginine-beta-naphthylamide
Klebsiella aerogenes [19] = assay: Antimicrobial activity against multidrug resistant Enterobacter aerogenes isolate 10 by broth dilution method in presence of 26.3 mg/L efflux pump inhibitor phenylalanine-arginine-beta-naphthylamide
Klebsiella aerogenes [20] = assay: Antimicrobial activity against multidrug resistant Enterobacter aerogenes isolate 20 by broth dilution method
Klebsiella pneumoniae [21] = assay: Antimicrobial activity against multidrug resistant Klebsiella pneumoniae isolate 3 by broth dilution method
Klebsiella aerogenes [22] = assay: Antimicrobial activity against multidrug resistant Enterobacter aerogenes isolate 12 by broth dilution method
Klebsiella pneumoniae [23] = assay: Antimicrobial activity against multidrug resistant Klebsiella pneumoniae isolate 15 by broth dilution method in presence of 26.3 mg/L efflux pump inhibitor phenylalanine-arginine-beta-naphthylamide
Klebsiella pneumoniae [24] = assay: Antimicrobial activity against multidrug resistant Klebsiella pneumoniae isolate 6 by broth dilution method
Klebsiella aerogenes [25] = assay: Antimicrobial activity against multidrug resistant Enterobacter aerogenes isolate 18 by broth dilution method
Klebsiella aerogenes [26] = assay: Antimicrobial activity against multidrug resistant Enterobacter aerogenes isolate 8 by broth dilution method in presence of 26.3 mg/L efflux pump inhibitor phenylalanine-arginine-beta-naphthylamide
Klebsiella aerogenes [27] = assay: Antimicrobial activity against multidrug resistant Enterobacter aerogenes isolate 16 by broth dilution method
Klebsiella aerogenes [28] = assay: Antimicrobial activity against multidrug resistant Enterobacter aerogenes isolate 24 by broth dilution method in presence of 26.3 mg/L efflux pump inhibitor phenylalanine-arginine-beta-naphthylamide
Klebsiella aerogenes [29] = assay: Antimicrobial activity against multidrug resistant Enterobacter aerogenes isolate 6 by broth dilution method in presence of 26.3 mg/L efflux pump inhibitor phenylalanine-arginine-beta-naphthylamide
Klebsiella aerogenes [30] = assay: Antimicrobial activity against multidrug resistant Enterobacter aerogenes isolate 19 by broth dilution method
Klebsiella aerogenes [31] = assay: Antimicrobial activity against multidrug resistant Enterobacter aerogenes isolate 2 by broth dilution method
Klebsiella aerogenes [32] = assay: Antimicrobial activity against multidrug resistant Enterobacter aerogenes isolate 22 by broth dilution method
Klebsiella aerogenes [33] = assay: Antimicrobial activity against multidrug resistant Enterobacter aerogenes isolate 27 by broth dilution method in presence of 26.3 mg/L efflux pump inhibitor phenylalanine-arginine-beta-naphthylamide
Klebsiella pneumoniae [34] = assay: Antimicrobial activity against multidrug resistant Klebsiella pneumoniae isolate 16 by broth dilution method in presence of 26.3 mg/L efflux pump inhibitor phenylalanine-arginine-beta-naphthylamide
Klebsiella aerogenes [35] = assay: Antimicrobial activity against multidrug resistant Enterobacter aerogenes isolate 25 by broth dilution method
Klebsiella aerogenes [36] = assay: Antimicrobial activity against multidrug resistant Enterobacter aerogenes isolate 9 by broth dilution method in presence of 26.3 mg/L efflux pump inhibitor phenylalanine-arginine-beta-naphthylamide
Klebsiella aerogenes [37] = assay: Antimicrobial activity against multidrug resistant Enterobacter aerogenes isolate 7 by broth dilution method in presence of 26.3 mg/L efflux pump inhibitor phenylalanine-arginine-beta-naphthylamide
Klebsiella aerogenes [38] = assay: Antimicrobial activity against multidrug resistant Enterobacter aerogenes isolate 15 by broth dilution method in presence of 26.3 mg/L efflux pump inhibitor phenylalanine-arginine-beta-naphthylamide
Klebsiella aerogenes [39] = assay: Antimicrobial activity against multidrug resistant Enterobacter aerogenes isolate 23 by broth dilution method
Klebsiella aerogenes [40] = assay: Antimicrobial activity against multidrug resistant Enterobacter aerogenes isolate 5 by broth dilution method in presence of 26.3 mg/L efflux pump inhibitor phenylalanine-arginine-beta-naphthylamide
Klebsiella aerogenes [41] = assay: Antimicrobial activity against multidrug resistant Enterobacter aerogenes isolate 1 by broth dilution method in presence of 26.3 mg/L efflux pump inhibitor phenylalanine-arginine-beta-naphthylamide
Klebsiella aerogenes [42] = assay: Antimicrobial activity against multidrug resistant Enterobacter aerogenes isolate 1 by broth dilution method
Klebsiella pneumoniae [43] = assay: Antimicrobial activity against multidrug resistant Klebsiella pneumoniae isolate 7 by broth dilution method
Klebsiella aerogenes [44] = assay: Antimicrobial activity against multidrug resistant Enterobacter aerogenes isolate 8 by broth dilution method
Klebsiella pneumoniae [45] = assay: Antimicrobial activity against multidrug resistant Klebsiella pneumoniae isolate 6 by broth dilution method in presence of 26.3 mg/L efflux pump inhibitor phenylalanine-arginine-beta-naphthylamide
Klebsiella aerogenes [46] = assay: Antimicrobial activity against multidrug resistant Enterobacter aerogenes isolate 4 by broth dilution method in presence of 26.3 mg/L efflux pump inhibitor phenylalanine-arginine-beta-naphthylamide
Klebsiella pneumoniae [47] = assay: Antimicrobial activity against multidrug resistant Klebsiella pneumoniae isolate 8 by broth dilution method
Klebsiella pneumoniae [48] = assay: Antimicrobial activity against multidrug resistant Klebsiella pneumoniae isolate 12 by broth dilution method in presence of 26.3 mg/L efflux pump inhibitor phenylalanine-arginine-beta-naphthylamide
Klebsiella pneumoniae [49] = assay: Antimicrobial activity against multidrug resistant Klebsiella pneumoniae ATCC 11296 by broth dilution method
Klebsiella aerogenes [50] = assay: Antimicrobial activity against multidrug resistant Enterobacter aerogenes isolate 9 by broth dilution method

Measured: MIC

C[C@@H]1CN(c2c(F)c(N)c3c(=O)c(C(=O)O)cn(C4CC4)c3c2F)C[C@H](C)N1 [SPARFLOXACIN]
≤ 0.06 µg/mL: Klebsiella pneumoniae [3] | Klebsiella pneumoniae [13] | Klebsiella pneumoniae [24] | Klebsiella aerogenes [29] | Klebsiella pneumoniae [34] | Klebsiella pneumoniae [45] | Klebsiella pneumoniae [48] | Klebsiella pneumoniae [49]
0.25 µg/mL: Klebsiella pneumoniae [1] | Klebsiella pneumoniae [43]
256 µg/mL: Klebsiella aerogenes [15] | Klebsiella aerogenes [17] | Klebsiella aerogenes [20] | Klebsiella aerogenes [32] | Klebsiella aerogenes [42]
32 µg/mL: Klebsiella aerogenes [2]
4 µg/mL: Klebsiella aerogenes [7] | Klebsiella aerogenes [8] | Klebsiella aerogenes [18] | Klebsiella aerogenes [26] | Klebsiella aerogenes [37]
64 µg/mL: Klebsiella aerogenes [27] | Klebsiella aerogenes [44]
16 µg/mL: Klebsiella aerogenes [4] | Klebsiella aerogenes [28] | Klebsiella aerogenes [40]
8 µg/mL: Klebsiella aerogenes [9] | Klebsiella aerogenes [11] | Klebsiella aerogenes [16] | Klebsiella aerogenes [19] | Klebsiella pneumoniae [21] | Klebsiella pneumoniae [23] | Klebsiella aerogenes [33] | Klebsiella aerogenes [36] | Klebsiella aerogenes [38] | Klebsiella aerogenes [41] | Klebsiella aerogenes [46]
0.125 µg/mL: Klebsiella pneumoniae [14] | Klebsiella pneumoniae [47]
128 µg/mL: all other assays above

CN(C)[C@@H]1C(O)=C(C(N)=O)C(=O)[C@@]2(O)C(O)=C3C(=O)c4c(O)cccc4[C@@](C)(O)[C@H]3C[C@@H]12 [TETRACYCLINE]
32 µg/mL: Klebsiella aerogenes [2] | Klebsiella aerogenes [40]
4 µg/mL: Klebsiella aerogenes [9] | Klebsiella aerogenes [11] | Klebsiella pneumoniae [14] | Klebsiella pneumoniae [21] | Klebsiella aerogenes [25] | Klebsiella aerogenes [36]
64 µg/mL: Klebsiella aerogenes [6] | Klebsiella aerogenes [10] | Klebsiella aerogenes [15] | Klebsiella aerogenes [20] | Klebsiella aerogenes [27] | Klebsiella aerogenes [30] | Klebsiella aerogenes [31] | Klebsiella aerogenes [35] | Klebsiella aerogenes [39] | Klebsiella aerogenes [44] | Klebsiella aerogenes [50]
256 µg/mL: Klebsiella pneumoniae [45] | Klebsiella pneumoniae [48]
2 µg/mL: Klebsiella aerogenes [8] | Klebsiella pneumoniae [13] | Klebsiella pneumoniae [24] | Klebsiella aerogenes [26] | Klebsiella pneumoniae [43] | Klebsiella pneumoniae [47] | Klebsiella pneumoniae [49]
16 µg/mL: Klebsiella aerogenes [37]
128 µg/mL: Klebsiella pneumoniae [1] | Klebsiella aerogenes [5] | Klebsiella aerogenes [12] | Klebsiella aerogenes [17] | Klebsiella aerogenes [22] | Klebsiella pneumoniae [23] | Klebsiella aerogenes [32] | Klebsiella pneumoniae [34] | Klebsiella aerogenes [42]
8 µg/mL: all other assays above

Reference: ChEMBL document CHEMBL1649134, “Occurrence of efflux mechanism and cephalosporinase variant in a population of Enterobacter aerogenes and Klebsiella pneumoniae isolates producing extended-spectrum beta-lactamases” (2009)
